From patent US20100048521A1, “COMBINATION OF A GLUCO-KORTICOID AND BETA-CYCLODEXTRIN CONJUGATED VITAMIN A-DERIVATE COMPLEX” (priority 2006, published 2010)

Test system: skin (epidermis+dermis) of healthy female volunteers
Test: Comparative study of skin atrophy: skin thickness and density by ultrasound (Dermascan C) after topical treatment of the inner arm
Assay type: in vivo, human
Source text: Comparative Study of Hydrocortisone and Hydrocortisone Combined with β-cyclodextrin Conjugated Retinyl Palmitate Complex with Respect to the Development of Skin Atrophy
The study was run according to the protocol described below and was approved by the local regional ethics committee before the study was initiated.
The study included 10 healthy female volunteers. The average age was 43.2 years. They received treatment with hydrocortisone cream 1% on the inner part of one arm (right or left) once daily for 4 weeks. […] On the opposite arm they were treated with hydrocortisone cream 1% and after 10 minutes Nourella Cream containing β-cyclodextrin conjugated retinyl palmitate complex was applied (Pharma Medico; Aarhus, Denmark). Treatments were randomized so that half of the participants treated the right arm with hydrocortisone and the left with the combination and vice versa.
The skin was inspected clinically in the beginning and at the end of the study and objective measurement of the skin thickness and density was done by ultrasound (Dermascan C).

[1] = after 4 weeks of once daily topical treatment, inner arm, ultrasound, ns

C[C@]12CCC(=O)C=C1CC[C@@H]1[C@@H]2[C@@H](O)C[C@@]2(C)[C@H]1CC[C@]2(O)C(=O)CO [Hydrocortisone, hydrocortisone]
Average reduction of skin thickness (epidermis+dermis) (4 weeks once daily topical, change vs baseline, p=0.07 between arms): 15% | Skin density, After 4 weeks [1]: 1830.0 ns pixel | Skin thickness, After 4 weeks [1]: 0.954 ns mm | Development of low echogenic dark areas (dermis density) (after 4 weeks of treatment, ultrasound, p=0.08): Low echogenic dark areas develop | Cross-section of the skin: thickness and density vs baseline (figure) (after treatment for 4 weeks, ultrasound picture): The skin gets thinner and the density decrease | Skin density, Baseline (baseline, before treatment, inner arm, ultrasound): 1503.5 pixel | Skin thickness, Baseline (baseline, before treatment, inner arm, ultrasound, 10 healthy female volunteers): 1.122 mm | Skin atrophy (used for 4 weeks, FIG. 1 and FIG. 2): significant skin atrophy
